From patent publication US20250163104A1, “MACROCYCLIC IMMUNOMODULATORS” (priority 2021, published 2025) come the findings set out here.

Molecules are shown by their SMILES. Where a SMILES comes first, the peptide text is derived from it. Bridges are numbered along the chain shown (N, C = ends). [ ]: non-standard residue; d: D form. Phe(4-CH2NH2) = NCc1ccc(C[C@H](N)C(=O)O)cc1; Bip = N[C@@H](Cc1ccc(-c2ccccc2)cc1)C(=O)O; Phe(3-CN) = N#Cc1cccc(C[C@H](N)C(=O)O)c1; Phe(4-CN) = N#Cc1ccc(C[C@H](N)C(=O)O)cc1; Phe(4-Cl) = N[C@@H](Cc1ccc(Cl)cc1)C(=O)O; Ala(2-furyl) = N[C@@H](Cc1ccco1)C(=O)O; Phe(3-F) = N[C@@H](Cc1cccc(F)c1)C(=O)O; Phe(4-F) = N[C@@H](Cc1ccc(F)cc1)C(=O)O; Cha = N[C@@H](CC1CCCCC1)C(=O)O; Cit = NC(=O)NCCC[C@H](N)C(=O)O; Orn = NCCC[C@H](N)C(=O)O; Dab = NCC[C@H](N)C(=O)O; Dap = NC[C@H](N)C(=O)O

The target in the experiment is T1, human PD-1 / PD-L1-Ig binding on Jurkat cell line over-expressing human PD-1 (Jurkat-PD-1) (Homo sapiens, UniProt Q15116).
T1 construct: expressed in transfected cells; host or cells: Jurkat
T1 sequence (Q15116 25-288): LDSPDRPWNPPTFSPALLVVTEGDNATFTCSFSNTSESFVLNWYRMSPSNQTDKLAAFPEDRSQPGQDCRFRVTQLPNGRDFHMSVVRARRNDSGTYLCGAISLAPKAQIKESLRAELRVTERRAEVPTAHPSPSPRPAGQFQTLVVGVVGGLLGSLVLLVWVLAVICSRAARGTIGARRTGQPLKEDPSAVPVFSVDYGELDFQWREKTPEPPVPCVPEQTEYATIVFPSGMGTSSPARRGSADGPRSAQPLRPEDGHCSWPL
Description: Jurkat-PD-1 Cell Binding High-Content Screening Assay (CBA). In kind it is cell-based. Conditions: Jurkat-PD-1 cells, PE-labeled PD-L1-Ig 20 nM final; read-out: Jurkat HPD1_PDL1 IC50. The gist of the method:
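Jurkat-hPD-1 cells in DMEM with 10% fetal calf serum receive test compound and are held at 37° C for 2 h. PE-labeled PD-L1-Ig is added at 20 nM final and left for 1 hour. Cells are then fixed and Hoechst-stained, and binding is measured by imaging.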
As usually defined, the IC50 is the concentration that inhibits the measured activity by half. As to `CC(C)C[C@H]1NC(=O)[C@H](CCCN)NC(=O)[C@H](CCCNC(N)=O)NC(=O)[C@H](Cc2ccc(-c3ccccc3)cc2)NC(=O)[C@H](C(C)C)NC(=O)[C@H](Cc2c[nH]c3ccccc23)NC(=O)[C@H](CC(=O)O)NC(=O)[C@H](Cc2cccc(C#N)c2)NC(=O)[C@H](CN)NC(=O)CSC[C@@H](C(=O)N[C@@H](C)C(N)=O)NC(=O)[C@H]([C@@H](C)O)NC(=O)[C@H](C(C)C)NC(=O)[C@H](CC2CCCCC2)NC(=O)[C@H](CCN)NC1=O` [Compound 2093] ({CH2CO}-[Dap][Phe(3-CN)]DWV[Bip][Cit][Orn][dL][Dab][Cha]VTCA-NH2; thioether N-14), the IC50 was 12 nM.

Regarding `CC(C)C[C@H]1NC(=O)[C@H](CCCN)NC(=O)[C@H](CCCNC(N)=O)NC(=O)[C@H](Cc2ccc(-c3ccccc3)cc2)NC(=O)[C@H](C(C)C)NC(=O)[C@H](Cc2c[nH]c3ccccc23)NC(=O)[C@H](CC(=O)O)NC(=O)[C@H](Cc2cccnc2)NC(=O)[C@H](CN)NC(=O)CSC[C@@H](C(=O)N[C@@H](C)C(N)=O)NC(=O)[C@H]([C@@H](C)O)NC(=O)[C@H](C(C)C)NC(=O)[C@H](CC2CCCCC2)NC(=O)[C@H](CCN)NC1=O` [Compound 2094], the IC50 came out at 8.7 nM. Then `CC(C)C[C@H]1NC(=O)[C@H](CCCN)NC(=O)[C@H](CCCNC(N)=O)NC(=O)[C@H](Cc2ccc(-c3ccccc3)cc2)NC(=O)[C@H](C(C)C)NC(=O)[C@H](Cc2c[nH]c3ccccc23)NC(=O)[C@H](CC(=O)O)NC(=O)[C@H](Cc2ccncc2)NC(=O)[C@H](CN)NC(=O)CSC[C@@H](C(=O)N[C@@H](C)C(N)=O)NC(=O)[C@H]([C@@H](C)O)NC(=O)[C@H](C(C)C)NC(=O)[C@H](CC2CCCCC2)NC(=O)[C@H](CCN)NC1=O` [Compound 2096], with 4.5 nM; and `CC(C)C[C@H]1NC(=O)[C@H](CCCN)NC(=O)[C@H](CCCNC(N)=O)NC(=O)[C@H](Cc2ccc(-c3ccccc3)cc2)NC(=O)[C@H](C(C)C)NC(=O)[C@H](Cc2c[nH]c3ccccc23)NC(=O)[C@H](CC(=O)O)NC(=O)[C@H](Cc2cccc(F)c2)NC(=O)[C@H](CN)NC(=O)CSC[C@@H](C(=O)N[C@@H](C)C(N)=O)NC(=O)[C@H]([C@@H](C)O)NC(=O)[C@H](C(C)C)NC(=O)[C@H](CC2CCCCC2)NC(=O)[C@H](CCN)NC1=O` [Compound 2097] ({CH2CO}-[Dap][Phe(3-F)]DWV[Bip][Cit][Orn][dL][Dab][Cha]VTCA-NH2; thioether N-14), with 18.8 nM; and `CC(C)C[C@H]1NC(=O)[C@H](CCCN)NC(=O)[C@H](CCCNC(N)=O)NC(=O)[C@H](Cc2ccc(-c3ccccc3)cc2)NC(=O)[C@H](C(C)C)NC(=O)[C@H](Cc2c[nH]c3ccccc23)NC(=O)[C@H](CC(=O)O)NC(=O)[C@H](Cc2ccc(CN)cc2)NC(=O)[C@H](CN)NC(=O)CSC[C@@H](C(=O)N[C@@H](C)C(N)=O)NC(=O)[C@H]([C@@H](C)O)NC(=O)[C@H](C(C)C)NC(=O)[C@H](CC2CCCCC2)NC(=O)[C@H](CCN)NC1=O` [Compound 2098] ({CH2CO}-[Dap][Phe(4-CH2NH2)]DWV[Bip][Cit][Orn][dL][Dab][Cha]VTCA-NH2; thioether N-14), with 15.7 nM. In the case of `CC(C)C[C@H]1NC(=O)[C@H](CCCN)NC(=O)[C@H](CCCNC(N)=O)NC(=O)[C@H](Cc2ccc(-c3ccccc3)cc2)NC(=O)[C@H](C(C)C)NC(=O)[C@H](Cc2c[nH]c3ccccc23)NC(=O)[C@H](CC(=O)O)NC(=O)[C@H](Cc2ccco2)NC(=O)[C@H](CN)NC(=O)CSC[C@@H](C(=O)N[C@@H](C)C(N)=O)NC(=O)[C@H]([C@@H](C)O)NC(=O)[C@H](C(C)C)NC(=O)[C@H](CC2CCCCC2)NC(=O)[C@H](CCN)NC1=O` [Compound 2099] ({CH2CO}-[Dap][Ala(2-furyl)]DWV[Bip][Cit][Orn][dL][Dab][Cha]VTCA-NH2; thioether N-14) it was 12.6 nM. In the case of `CC(C)C[C@H]1NC(=O)[C@H](CCCN)NC(=O)[C@H](CCCNC(N)=O)NC(=O)[C@H](Cc2ccc(-c3ccccc3)cc2)NC(=O)[C@H](C(C)C)NC(=O)[C@H](Cc2c[nH]c3ccccc23)NC(=O)[C@H](CC(=O)O)NC(=O)[C@H](Cc2ccsc2)NC(=O)[C@H](CN)NC(=O)CSC[C@@H](C(=O)N[C@@H](C)C(N)=O)NC(=O)[C@H]([C@@H](C)O)NC(=O)[C@H](C(C)C)NC(=O)[C@H](CC2CCCCC2)NC(=O)[C@H](CCN)NC1=O` [Compound 2100] it was 21.2 nM. As to `CC(C)C[C@H]1NC(=O)[C@H](CCCN)NC(=O)[C@H](CCCNC(N)=O)NC(=O)[C@H](Cc2ccc(-c3ccccc3)cc2)NC(=O)[C@H](C(C)C)NC(=O)[C@H](Cc2c[nH]c3ccccc23)NC(=O)[C@H](CC(=O)O)NC(=O)[C@H](Cc2ccc(C#N)cc2)NC(=O)[C@H](CN)NC(=O)CSC[C@@H](C(=O)N[C@@H](C)C(N)=O)NC(=O)[C@H]([C@@H](C)O)NC(=O)[C@H](C(C)C)NC(=O)[C@H](CC2CCCCC2)NC(=O)[C@H](CCN)NC1=O` [Compound 2101] ({CH2CO}-[Dap][Phe(4-CN)]DWV[Bip][Cit][Orn][dL][Dab][Cha]VTCA-NH2; thioether N-14), the IC50 is 6.6 nM. Consider `CC(C)C[C@H]1NC(=O)[C@H](CCCN)NC(=O)[C@H](CCCNC(N)=O)NC(=O)[C@H](Cc2ccc(-c3ccccc3)cc2)NC(=O)[C@H](C(C)C)NC(=O)[C@H](Cc2c[nH]c3ccccc23)NC(=O)[C@H](CC(=O)O)NC(=O)[C@H](Cc2ccc(Cl)cc2)NC(=O)[C@H](CN)NC(=O)CSC[C@@H](C(=O)N[C@@H](C)C(N)=O)NC(=O)[C@H]([C@@H](C)O)NC(=O)[C@H](C(C)C)NC(=O)[C@H](CC2CCCCC2)NC(=O)[C@H](CCN)NC1=O` [Compound 2102] ({CH2CO}-[Dap][Phe(4-Cl)]DWV[Bip][Cit][Orn][dL][Dab][Cha]VTCA-NH2; thioether N-14), for which the IC50 was determined as 45.6 nM. For `CC(C)C[C@H]1NC(=O)[C@H](CCCN)NC(=O)[C@H](CCCNC(N)=O)NC(=O)[C@H](Cc2ccc(-c3ccccc3)cc2)NC(=O)[C@H](C(C)C)NC(=O)[C@H](Cc2c[nH]c3ccccc23)NC(=O)[C@H](CC(=O)O)NC(=O)[C@H](Cc2ccc(F)cc2)NC(=O)[C@H](CN)NC(=O)CSC[C@@H](C(=O)N[C@@H](C)C(N)=O)NC(=O)[C@H]([C@@H](C)O)NC(=O)[C@H](C(C)C)NC(=O)[C@H](CC2CCCCC2)NC(=O)[C@H](CCN)NC1=O` [Compound 2103] ({CH2CO}-[Dap][Phe(4-F)]DWV[Bip][Cit][Orn][dL][Dab][Cha]VTCA-NH2; thioether N-14), the IC50 was found to be 15.9 nM.

In the case of `CC(C)C[C@H]1NC(=O)[C@H](CCCN)NC(=O)[C@H](CCCNC(N)=O)NC(=O)[C@H](Cc2ccc(-c3ccccc3)cc2)NC(=O)[C@H](C(C)C)NC(=O)[C@H](Cc2c[nH]c3ccccc23)NC(=O)[C@H](CC(=O)O)NC(=O)[C@H](CCc2ccncc2)NC(=O)[C@H](CN)NC(=O)CSC[C@@H](C(=O)N[C@@H](C)C(N)=O)NC(=O)[C@H]([C@@H](C)O)NC(=O)[C@H](C(C)C)NC(=O)[C@H](CC2CCCCC2)NC(=O)[C@H](CCN)NC1=O` [Compound 2104], the IC50 turned out to be 18.2 nM.
